For the test, the system named is Coxsackie virus type B3 (COX-B3). The test is described as follows: Anti-Coxsackie virus type B3 (COX-B3) activity, CPE in Vero cells. The test is classed as cell-based. The note with it: Reed-Muench. The protocol: With Vero (African green monkey kidney) cells as viral hosts, inhibitory effects of the compounds of present invention on the grades of pathological lesions by coxsackievirus B3 (COX-B3), B6 (COX-B6) viruses in Vero cells were determined. The measured results of viral inhibitory activity of the compounds are shown in Table 3 and Table 4; wherein RBV is the control drug ribavirin. The inhibitory activities of the measured compounds against coxsackievirus B3, B6 were stronger than the control.
Screening of Anti-B3, B6 Type Coxsackie Viruses (COX-B3, COX-B6) Activity of the Samples
Prepare stock solutions of COX-B3 (or COX-B6) virus strains as well as tested compounds in DMSO before use. Before tests, dilute the stock solution with culture solution into a certain concentration and then dilute 3 times to make a total of eight dilutions. Use ribavirin (RBV) as positive control. Test procedures are as follows: seed Vero cells into 96-well culture plates, infect with 10^−5 Coxsackie virus of B3 (or B6) type, 24 hours later; adsorb subsequently for 2 hours, then discard the virus solution, add in the sample compounds and the positive control according to the abovementioned dilutions, set cell control wells and virus control wells simultaneously. When the cytopathic effect (CPE) of cells in the virus control wells reach 4+, observe CPE of the cells in each group. Use Reed-Muench method to calculate 50% inhibitory concentration (IC50) of the sample compounds against coxsackie virus B3 (or B6) type.

≈ marks a conversion by molar mass, not a printed value.

`COc1cc(-c2cnco2)c(NCc2ccnc3ccccc23)cc1O` [Compound 58, 2-methoxy-4-(oxazol-5-yl)-5-[(quinolin-4-ylmethyl)-amino] phenol]: the IC50 (in general, the point on the concentration scale where inhibition reaches its midpoint) was 3.22 µg/mL (≈ 9.27 µM).

`COc1cc(NCc2ccc(CO)o2)ccc1-c1cnco1` [Compound 96] yielded a half-inhibitory concentration (IC50) of 1.43 µg/mL (≈ 4.76 µM).

As to `C#CCN(Cc1cc(CC)sc1C)c1ccc(-c2cnco2)c(OC)c1` [Compound 13, N-(5-ethyl-2-methylthien-3-ylmethyl)-N-(3-methoxy-4-oxazole-5-phenyl) propyn-2-ylamine], the “IC50, anti-Coxsackie virus type B3 (COX-B3)” value was 0.30 µg/mL (≈ 0.819 µM).

As to `Clc1cc(NCc2cccc3c2sc2ccccc23)ccc1-c1cnco1` [Compound 90, N-dibenzothien-4-ylmethyl-3-chloro-4-oxazol-5-yl aniline], half-maximal inhibition (IC50) was put at 0.26 µg/mL (≈ 0.665 µM).

With `COc1cc(NS(=O)(=O)c2ccc(C)cc2)ccc1-c1cnco1` [Compound 69], half-maximal inhibition (IC50) required 0.98 µg/mL (≈ 2.85 µM).

With `COc1ccc(-c2cnco2)cc1NCc1ccsc1` [Compound 31, N-(thien-3-ylmethyl)-2-methoxy-5-(oxazol-5-yl) aniline], the IC50 was found to be 0.88 µg/mL (≈ 3.07 µM).

`COc1cc(NCc2cccn2C)ccc1-c1cnco1` [Compound 51, N-(1-methyl-1H-pyrrol-2-ylmethyl)-3-methoxy-4-(oxazol-5-yl) aniline]: the half-inhibitory concentration (IC50) was 2.47 µg/mL (≈ 8.72 µM).

`COc1ccc(-c2cnco2)cc1/N=C/c1cc(Cl)cs1` [Compound 29, N-(4-chlorothien-2-ylmethylene)-2-methoxy-5-(oxazol-5-yl)-aniline]: the midpoint of inhibition, the IC50, lay at 10.7 µg/mL (≈ 33.5 µM).

For `COc1cc(NCc2nc3ccccc3s2)ccc1-c1cnco1` [Compound 8, N-(benzothiazol-2-ylmethyl)-3-methoxy-4-(oxazol-5-yl) aniline], half-maximal inhibition (IC50) required 0.45 µg/mL (≈ 1.33 µM).

The compound `COc1cc(CN(Cc2cc3cc(C)ccc3s2)S(C)(=O)=O)ccc1-c1cnco1` [Compound 84, N-(3-methoxy-4-oxazol-5-yl-benzyl)-N-(5-methyl-benzothien-2-ylmethyl)-methylsulfonamide] registered an IC50 of 0.34 µg/mL (≈ 0.768 µM).

In turn, `COc1cc(NC/C=C/c2ccoc2)ccc1-c1cnco1` [Compound 105, N-(furan-3-ylpropen-1-yl)-3-methoxy-4-oxazol-5-yl aniline] yielded an IC50 of 1.23 µg/mL (≈ 4.15 µM).

`COc1cc(NCc2ccc(N3CCC(O)CC3)s2)ccc1-c1cnco1` [Compound 103] showed a 50% inhibitory concentration (IC50) of 0.4 µg/mL (≈ 1.04 µM).

With `COc1cc(NCc2ccc3c(c2)Sc2ccccc2N3C)ccc1-c1cnco1` [Compound 88, N-(10-methyl-10H-phenothiazin-3-ylmethyl)-3-methoxy-4-oxazol-5-yl aniline], the concentration for half-maximal inhibition (IC50) is 0.36 µg/mL (≈ 0.866 µM).

As for `COc1cc(NCc2ccc3sccc3c2)ccc1-c1cnco1` [Compound 106, N-(benzothien-5-ylmethyl)-3-methoxy-4-oxazol-5-yl aniline], the IC50 turned out to be 0.44 µg/mL (≈ 1.31 µM).

The compound `COc1cc(NCc2ccc(-c3ccc(C(F)(F)F)cc3Cl)o2)ccc1-c1cnco1` [Compound 104, N-[5-(2-chloro-4-trifluoromethylphenyl)furan-2-ylmethyl]-3-methoxy-4-oxazol-5-yl aniline] displayed an IC50 of 0.45 µg/mL (≈ 1 µM).

Compound `COc1ccc(-c2cnco2)cc1NCC1CCOCC1` [Compound 37, N-(tetrahydropyran-4-ylmethyl)-2-methoxy-5-oxazol-5-yl aniline] displayed a half-maximal inhibitory concentration (IC50) of 0.63 µg/mL (≈ 2.18 µM).

With `COc1cc(NS(=O)(=O)c2cc([N+](=O)[O-])c(Cl)s2)ccc1-c1cnco1` [Compound 99, N-(5-chloro-4-nitro-thien-2-ylsulfonyl)-3-methoxy-4-oxazole-5-yl aniline], inhibition was half-maximal at 0.78 µg/mL (≈ 1.88 µM) (IC50).

For `COc1ccc(-c2cnco2)cc1NCc1csc(Br)c1` [Compound 35, N-(5-bromothien-3-ylmethyl)-2-methoxy-5-(oxazol-5-yl) aniline], the 50% inhibitory concentration (IC50) was 0.57 µg/mL (≈ 1.56 µM).

Consider `COc1cc(NCC2=COc3ccc(O)cc3C2)ccc1-c1cnco1` [Compound 92, 3-(3-methoxy-4-oxazol-5-ylanilino) methyl-4-H-benzopyran-6-ol], for which inhibition was half-maximal at 0.63 µg/mL (≈ 1.8 µM) (IC50).

Regarding `COc1ccc(-c2cnco2)cc1NCc1ccc(CCl)s1` [Compound 24, N-(5-chloromethylthien-2-ylmethyl)-2-methoxy-5-(oxazol-5-yl) aniline], the IC50 came to 0.57 µg/mL (≈ 1.7 µM).

In turn, `COc1cc(NCc2c3ccccc3nc3ccc(C)cc23)ccc1-c1cnco1` [Compound 94, N-(2-methylacridine-9-methyl)-3-methoxy-4-(oxazol-5-yl) aniline] registered a half-maximal inhibitory concentration (IC50) of 0.68 µg/mL (≈ 1.72 µM).

In turn, `COc1cc(NCc2ccc(C(=O)Nc3cc(OC)c(OC)c(OC)c3)o2)ccc1-c1cnco1` [Compound 47, N-2-(3,4,5-trimethoxyphenylaminocarbonyl) furan-5-ylmethyl 3-methoxy-4-(oxazol-5-yl)aniline] had an IC50 of 0.56 µg/mL (≈ 1.17 µM).

Regarding `COc1cc(NCC2=C(Cl)c3cc(Cl)ccc3SC2)ccc1-c1cnco1` [Compound 83, N-(4,6-dichloro-2H-sulfurbenzopyran-3-ylmethyl)-3-methoxy-4-(oxazol-5-yl) aniline], the half-inhibitory concentration (IC50) amounted to 0.42 µg/mL (≈ 1 µM).

`COc1cc(NCCc2ccc(C)s2)ccc1-c1cnco1` [Compound 72, N-[2-(5-methylthien-2-yl)-ethyl]-3-methoxy-4-(oxazol-5-yl) aniline] returned an IC50 of 0.44 µg/mL (≈ 1.4 µM).

For the compound `COc1ccc(-c2cnco2)cc1NCc1ccc(-c2cccc(Cl)c2)o1` [Compound 46, N-[5-(3-chlorophenyl)-furan-2-ylmethyl]-2-methoxy-5-(oxazol-5-yl) aniline], the midpoint of inhibition, the IC50, lay at 0.76 µg/mL (≈ 2 µM).

The compound `Clc1cc(CNCc2cccc3nsnc23)ccc1-c1cnco1` [Compound 91, N-(benzo[1,2,5]-thiadiazol-4-ylmethyl)-3-chloro-4-oxazol-5-yl benzylamine] gave an IC50 of 0.28 µg/mL (≈ 0.785 µM).

For `COc1cc(NCc2ccc(SC)s2)ccc1-c1cnco1` [Compound 102, N-(5-methylthiothien-2-ylmethyl)-3-methoxy-4-(oxazol-5-yl) aniline], the IC50 came to 0.35 µg/mL (≈ 1.05 µM).

Turning to `COc1cc(CNCc2ccc(Br)o2)ccc1-c1cnco1` [Compound 93, N-(5-bromofuran-2-ylmethyl)-3-methoxy-4-(oxazol-5-yl) benzylamine], half-maximal inhibition (IC50) was put at 0.88 µg/mL (≈ 2.42 µM).

For the compound `COc1cc(NCc2cccc3c2oc2ccccc23)ccc1-c1cnco1` [Compound 75, N-(dibenzofuran-4-ylmethyl)-3-methoxy-4-(oxazol-5-yl) aniline], the half-inhibitory concentration (IC50) was determined as 0.45 µg/mL (≈ 1.21 µM).

Compound `COc1ccc(-c2cnco2)cc1NCc1c(C)noc1C` [Compound 23, N-(3,5-dimethylisoxazol-4-ylmethyl)-2-methoxy-5-(oxazol-5-yl) aniline] gave an IC50 of 0.76 µg/mL (≈ 2.54 µM).

In turn, `COc1cc(NCCc2cc3cc(Cl)ccc3s2)ccc1-c1cnco1` [Compound 82, N-[2-(5-chlorobenzathien-2-yl)-ethyl]-3-methoxy-4-(oxazol-5-yl) aniline] yielded an IC50 of 0.33 µg/mL (≈ 0.857 µM).

For `COc1cc(NCc2cncn2C)ccc1-c1cnco1` [Compound 17, N-(1-methyl-1H-imidazol-5-ylmethyl)-3-methoxy-4-(oxazol-5-yl) aniline], the half-inhibitory concentration (IC50) was found to be 2.56 µg/mL (≈ 9 µM).

For `COc1cc(NCc2csc(Br)c2)ccc1-c1cnco1` [Compound 15, N-(5-bromothien-3-ylmethyl)-3-methoxy-4-(oxazol-5-yl) aniline], the half-maximal inhibitory concentration (IC50) is 0.46 µg/mL (≈ 1.26 µM).

As for `COc1cc(NCc2ccc(C(C)=O)s2)ccc1-c1cnco1` [Compound 101, N-(5-acetylthien-2-ylmethyl)-3-methoxy-4-oxazole-5-yl aniline], 0.48 µg/mL (≈ 1.46 µM) corresponded to half-maximal inhibition (IC50).

For the compound `COc1cc(NCc2ccc3c(c2)CCO3)ccc1-c1cnco1` [Compound 100, N-(2,3-dihydobenzofuro-5-ylmethyl)-3-methoxy-4-(oxazol-5-yl) aniline], half-maximal inhibition (IC50) was put at 0.46 µg/mL (≈ 1.43 µM).

On to `COc1cc(CNCc2ccc3c(cnn3C)c2)ccc1-c1cnco1` [Compound 86, N-(1-methyl-1H-indazole-5-methyl)-3-methoxy-4-(oxazol-5-yl) benzylamine], for which the IC50 is 0.34 µg/mL (≈ 0.976 µM).

On to `COc1ccc(-c2cnco2)cc1NCc1c(C)nn(C)c1Cl` [Compound 27, N-(5-chloro-1,3-dimethyl-1H-pyrazol-4-ylmethyl)-2-methoxy-5-(oxazol-5-yl) aniline], for which inhibition was half-maximal at 1.47 µg/mL (≈ 4.42 µM) (IC50).

On to `COc1cc(NCc2c3ccccc3cc3ccccc23)ccc1-c1cnco1` [Compound 95, N-(anthracen-9-ylmethyl) 3-methoxy-4-(oxazol-5-yl) aniline], for which the IC50 stood at 0.55 µg/mL (≈ 1.45 µM).

`COCc1ccc(CNc2cc(-c3cnco3)ccc2OC)o1` [Compound 48, N-(5-methoxymethylfuran-2-ylmethyl)-2-methoxy-5-(oxazol-5-yl) aniline] gave an IC50 of 0.5 µg/mL (≈ 1.59 µM).

Regarding `COc1cc(CNc2ccc(-c3cnco3)c(OC)c2)cs1` [Compound 18, N-(5-methoxy-thien-3-ylmethyl)-3-methoxy-4(oxazol-5-yl) aniline], the IC50 was 0.25 µg/mL (≈ 0.79 µM).

`COc1ccc(-c2cnco2)cc1NCc1cnn(-c2ccccc2)n1` [Compound 28, N-(2-phenyl-2H-1,2,3-triazol-4-ylmethyl)-(2-methoxy-5-oxazole-5-yl) aniline] yielded a half-maximal inhibitory concentration (IC50) of 1.23 µg/mL (≈ 3.54 µM).

The compound `Cc1ccc(-c2cnco2)cc1NCc1c(O)ccc2ccccc12` [Compound 79, 1-(2-methyl-5-oxazol-5-ylanilino) methyl-naphthol-2] returned an IC50 of 0.35 µg/mL (≈ 1.06 µM).

In turn, `COc1cc(NCCc2noc3ccccc23)ccc1-c1cnco1` [Compound 74, N-(1,2-benzisoxazol-3-ylethyl)-3-methoxy-4-(oxazol-5-yl) aniline] showed an IC50 of 0.63 µg/mL (≈ 1.88 µM).

(Values after patent US20150031686A1, “PHENYL-OXAZOLYL DERIVATIVES, PREPARATION METHOD THEREOF, AND RELATED APPLICATION OF THE PHENYL-OXAZOLYL DERIVATIVES AS AN IMPDH INHIBITOR” (INSTITUTE OF MEDICINAL BIOTECHNOLOGY, CHINESE ACADEMY OF …, priority 2012, published 2015).)
